Laboratory results: US20250114387A1, “PHARMACEUTICAL COMPOSITION COMPRISING ENAVOGLIFLOZIN FOR PREVENTING OR TREATING OBESITY IN CANINE ANIMALS” (DAEWOONG PHARMACEUTICAL CO., LTD., priority 2022, published 2025)

Key:
obese dogs [1] = test: Clinical trial in obese dogs: serum biochemical parameters; format: in vivo; details: for ALB / ALP / ALT / AST / BUN / CPK / CRE / GGT / Glu / TC / TP / TG: serum
Protocol: (§1) A total of 20 dogs were selected and divided into 4 groups with 5 dogs in each group: a normal obese control (OC); hereinafter, referred to as a control (OC)), an enavogliflozin 0.2-administered group, an enavogliflozin 0.5-administered group, and an enavogliflozin 1-administered group. The control was fed regular feed, and the enavogliflozin-administered groups were fed regular feed supplemented with enavogliflozin at doses of 0.2, 0.5, or 1 mg/kg, respectively. The feed was supplemented with enavogliflozin once a day for 8 weeks and given orally.
Biological analysis was performed as follows. A portion of the blood collected on the day of the test was transferred to a vacuum tube containing a coagulation activator, left at room temperature for 15 to 20 minutes to solidify, and then centrifuged at 3000 rpm, thereby obtaining serum. Serum biochemical parameters were evaluated using a Hitachi 7180 device (Hitachi, Tokyo, Japan). The evaluated biochemical parameters are aspartate aminotransferase (AST), alanine aminotransferase (ALT), alkaline phosphatase (ALP), creatine phosphokinase (CPK), total bilirubin (TBIL), glucose (GLU), total cholesterol (TC), triglycerides (TG), total protein (TP), albumin (ALB), gamma-glutamyl transpeptidase (GGT), blood urea nitrogen (BUN), creatinine (CRE), inorganic phosphorus (IP), calcium (Ca), and C-reactive protein (CRP).

obese dogs [2] = test: Clinical trial in obese dogs: feed intake; format: in vivo; details: for feed intake compared to the control (OC): during the 10-week experimental period
Protocol: as §1, with “The feed was supplemented with enavogliflozin once a day for 8 weeks and given orally.” left out

[3] = obese dogs, 0.2 mg/kg once a day oral for 8 weeks
[4] = obese dogs, 0.5 mg/kg once a day oral for 8 weeks
[5] = obese dogs, 1 mg/kg once a day oral for 8 weeks

For `OC[C@H]1O[C@@H](c2cc(Cc3ccc(C4CC4)cc3)c(Cl)c3c2CCO3)[C@H](O)[C@@H](O)[C@@H]1O` [Enavogliflozin, enavogliflozin], the “C-reactive protein (CRP) compared to the control (OC)” value (obese dogs [1]; obese dogs, 0.2 mg/kg) was “significantly decreased”, the “alanine aminotransferase (ALT) compared to the control (OC)” value (obese dogs [1]; obese dogs, 0.2 mg/kg) was “significantly decreased” and the “alkaline phosphatase (ALP) compared to the control (OC)” value (obese dogs [1]; obese dogs, 0.2 mg/kg) was “significantly decreased”. For the same compound, the “creatine phosphokinase (CPK) compared to the control (OC)” value (obese dogs [1]; obese dogs, 0.2 mg/kg) was “significantly decreased”, the “serum gamma-glutamyl transpeptidase (GGT) compared to the control (OC)” value (obese dogs [1]; obese dogs, 0.2 mg/kg) was “significantly decreased” and the “serum total cholesterol (TC) compared to the control (OC)” value (obese dogs [1]; obese dogs, 0.2 mg/kg) was “lower than those of the control (OC)”. The “triglyceride (TG) concentration compared to the control (OC)” value (obese dogs [1]; obese dogs, 0.2 mg/kg) was “lower than those of the control (OC)”, the “glucose (GLU) concentration compared to the control (OC)” value (obese dogs [1]; obese dogs, 1 mg/kg) was “significantly lower” and the “serum triglyceride (TG) concentrations compared to the control” value (obese dogs [1]; obese dogs, 0.2, 0.5 and 1 mg/kg groups) was “significantly lower than that of the control”. For the same compound, the “fasting glucose compared to the control (OC)” value (obese dogs [1]; obese dogs, all administration groups) was “decreased compared to the control (OC)”, the ALB (obese dogs [1]; [3]) was 3.48 ± 0.42 g/dL and the ALP (obese dogs [1]; [3]) was 84.60 ± 63.96 IU/L. For the same compound, the ALT (obese dogs [1]; [3]) was 18.84 ± 4.00 IU/L, the AST (obese dogs [1]; [3]) was 31.00 ± 1.83 IU/L and the BUN (obese dogs [1]; [3]) was 18.70 ± 10.29 mg/dL. The CPK (obese dogs [1]; [3]) was 111.12 ± 30.97 IU/L, the CRE (obese dogs [1]; [3]) was 0.78 ± 0.21 mg/dL and the GGT (obese dogs [1]; [3]) was 7.80 ± 1.64 IU/L. The Glu (obese dogs [1]; [3]) was 107.20 ± 10.85 mg/dL, the TC (obese dogs [1]; [3]) was 183.84 ± 36.01 mg/dL and the TP (obese dogs [1]; [3]) was 6.78 ± 0.66 g/dL. It also gave a TG (obese dogs [1]; obese dogs, 0.2 mg/kg once a day oral for 8 weeks, 0.2 mg/kg) of 142.00 ± 95.55 mg/dL, a TG (obese dogs [1]; obese dogs, 0.2 mg/kg once a day oral for 8 weeks, listed as enavogliflozin, 0.2 mg/kg) of 142.00 ± 95.55 mg/dL and an ALB (obese dogs [1]; [4]) of 2.95 ± 0.19 g/dL. It also gave an ALP (obese dogs [1]; [4]) of 146.20 ± 121.67 IU/L, an ALT (obese dogs [1]; [4]) of 36.80 ± 14.43 IU/L and an AST (obese dogs [1]; [4]) of 31.84 ± 12.92 IU/L. It also gave a BUN (obese dogs [1]; [4]) of 22.25 ± 8.64 mg/dL, a CPK (obese dogs [1]; [4]) of 136.50 ± 42.99 IU/L and a CRE (obese dogs [1]; [4]) of 0.82 ± 0.15 mg/dL. The GGT (obese dogs [1]; [4]) was 9.46 ± 5.37 IU/L, the Glu (obese dogs [1]; [4]) was 97.77 ± 10.19 mg/dL and the TC (obese dogs [1]; [4]) was 298.00 ± 71.14 mg/dL. For the same compound, the TP (obese dogs [1]; [4]) was 6.43 ± 0.32 g/dL, the TG (obese dogs [1]; obese dogs, 0.5 mg/kg once a day oral for 8 weeks, 0.5 mg/kg) was 133.86 ± 70.19 mg/dL and the TG (obese dogs [1]; obese dogs, 0.5 mg/kg once a day oral for 8 weeks, listed as enavogliflozin, 0.5 mg/kg) was 133.86 ± 70.19 mg/dL. For the same compound, the ALB (obese dogs [1]; [5]) was 2.92 ± 0.29 g/dL, the ALP (obese dogs [1]; [5]) was 186.20 ± 184.59 IU/L and the ALT (obese dogs [1]; [5]) was 38.60 ± 19.72 IU/L. The AST (obese dogs [1]; [5]) was 110.00 ± 167.92 IU/L, the BUN (obese dogs [1]; [5]) was 23.44 ± 13.17 mg/dL and the CPK (obese dogs [1]; [5]) was 260.40 ± 126.79 IU/L. The CRE (obese dogs [1]; [5]) was 0.92 ± 0.36 mg/dL, the GGT (obese dogs [1]; [5]) was 21.60 ± 29.36 IU/L and the Glu (obese dogs [1]; [5]) was 94.00 ± 13.47 mg/dL. The TC (obese dogs [1]; [5]) was 309.00 ± 129.40 mg/dL, the TP (obese dogs [1]; [5]) was 6.14 ± 0.54 g/dL and the TG (obese dogs [1]; obese dogs, 1 mg/kg once a day oral for 8 weeks, 1 mg/kg) was 282.60 ± 419.03 mg/dL. For the same compound, the TG (obese dogs [1]; obese dogs, 1 mg/kg once a day oral for 8 weeks, listed as enavogliflozin, 1 mg/kg) was 282.60 ± 419.03 mg/dL, the “Change rates of food consumption” value (obese dogs [2]; 0.2 mg/kg once a day oral for 8 weeks, week 0) was 100.00 ± 0.00% and the “Change rates of food consumption” value (obese dogs [2]; 0.2 mg/kg once a day oral for 8 weeks, week 2) was 126.52 ± 5.48 %. The “Change rates of food consumption” value (obese dogs [2]; 0.2 mg/kg once a day oral for 8 weeks, week 4) was 146.64 ± 5.37 %, the “Change rates of food consumption” value (obese dogs [2]; 0.2 mg/kg once a day oral for 8 weeks, week 6) was 153.71 ± 4.11 % and the “Change rates of food consumption” value (obese dogs [2]; 0.2 mg/kg once a day oral for 8 weeks, week 8) was 168.32 ± 4.80 %. The “Change rates of food consumption” value (obese dogs [2]; 0.2 mg/kg once a day oral for 8 weeks, week 10, 0.2 mg/kg) was 166.59 ± 4.72 %, the “Change rates of food consumption” value (obese dogs [2]; 0.2 mg/kg once a day oral for 8 weeks, week 10, listed as enavogliflozin, 0.2 mg/kg) was 166.59±4.72% and the “feed intake compared to the control (OC)” value (obese dogs [2]; 0.2 mg/kg, p<0.001) was “significantly increased”. For the same compound, the “Change rates of food consumption” value (obese dogs [2]; 0.5 mg/kg once a day oral for 8 weeks, week 0) was 100.00 ± 0.00%, the “Change rates of food consumption” value (obese dogs [2]; 0.5 mg/kg once a day oral for 8 weeks, week 2) was 95.13 ± 1.67 % and the “Change rates of food consumption” value (obese dogs [2]; 0.5 mg/kg once a day oral for 8 weeks, week 4) was 92.34 ± 2.10 %. For the same compound, the “Change rates of food consumption” value (obese dogs [2]; 0.5 mg/kg once a day oral for 8 weeks, week 6) was 92.30 ± 1.60 %, the “Change rates of food consumption” value (obese dogs [2]; 0.5 mg/kg once a day oral for 8 weeks, week 8) was 93.64 ± 1.67 % and the “Change rates of food consumption” value (obese dogs [2]; 0.5 mg/kg once a day oral for 8 weeks, week 10, 0.5 mg/kg) was 98.47 ± 1.44%. For the same compound, the “Change rates of food consumption” value (obese dogs [2]; 0.5 mg/kg once a day oral for 8 weeks, week 10, listed as enavogliflozin, 0.5 mg/kg) was 98.47±1.44%, the “feed intake compared to the control (OC)” value (obese dogs [2]; 0.5 mg/kg) was “decreased” and the “Change rates of food consumption” value (obese dogs [2]; 1 mg/kg once a day oral for 8 weeks, week 0) was 100.00 ± 0.00%. The “Change rates of food consumption” value (obese dogs [2]; 1 mg/kg once a day oral for 8 weeks, week 2) was 100.80 ± 4.20%, the “Change rates of food consumption” value (obese dogs [2]; 1 mg/kg once a day oral for 8 weeks, week 4) was 116.02 ± 3.09 % and the “Change rates of food consumption” value (obese dogs [2]; 1 mg/kg once a day oral for 8 weeks, week 6) was 121.84 ± 2.50 %. The “Change rates of food consumption” value (obese dogs [2]; 1 mg/kg once a day oral for 8 weeks, week 8) was 121.88 ± 2.36 %, the “Change rates of food consumption” value (obese dogs [2]; 1 mg/kg once a day oral for 8 weeks, week 10, 1 mg/kg) was 123.15 ± 2.45 % and the “Change rates of food consumption” value (obese dogs [2]; 1 mg/kg once a day oral for 8 weeks, week 10, listed as enavogliflozin, 1 mg/kg) was 123.15±2.45%. The “feed intake compared to the control (OC)” value (obese dogs [2]; 1 mg/kg, p<0.001) was “significantly increased”.
